Data: PMC7587383, “Pimarane Diterpenoids from the Seeds of Caesalpinia minax as PTP1B Inhibitors and Insulin Sensitizers” (Molecules, 2020)

Target: T1, Protein-tyrosine phosphatase 1B (PTP1B) (Homo sapiens, UniProt P18031)
T1 construct: gene PTPN1
T1 sequence (P18031 1-435): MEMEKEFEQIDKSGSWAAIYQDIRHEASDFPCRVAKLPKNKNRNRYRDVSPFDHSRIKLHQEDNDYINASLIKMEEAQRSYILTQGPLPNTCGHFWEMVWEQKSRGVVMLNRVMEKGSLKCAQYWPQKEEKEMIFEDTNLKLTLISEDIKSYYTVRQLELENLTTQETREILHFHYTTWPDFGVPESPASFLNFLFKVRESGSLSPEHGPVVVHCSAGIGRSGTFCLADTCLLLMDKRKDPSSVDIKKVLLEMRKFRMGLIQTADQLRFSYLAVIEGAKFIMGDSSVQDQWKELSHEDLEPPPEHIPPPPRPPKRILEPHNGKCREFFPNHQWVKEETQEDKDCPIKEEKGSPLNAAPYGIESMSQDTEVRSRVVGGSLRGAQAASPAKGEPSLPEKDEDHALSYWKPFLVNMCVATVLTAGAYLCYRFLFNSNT
Assay: pNPP dephosphorylation assay with human recombinant PTP1B; Lineweaver-Burk and Dixon plots
Type: biochemical

Compound `C=C[C@@]1(C)CCC2=C(C1)C(=O)C[C@H]1C(C)(C)C[C@H](O)C[C@]21C` [compound 1, 2α-hydroxy-7-oxo-pimara-8(9),15-diene] has a Ki of 13.7 ± 2.72 µM.
